Experimental data from patent publication US7790710B2, “Imidazopyridine derivatives useful as iNOS inhibitors” (NYCOMED GmbH, priority 2005, dated 2010).

Columns and labels:
[1] = biological target: T1, human inducible NO-synthase (Homo sapiens, UniProt P35228); assay: Measurement of inducible NO-synthase activity; assay type: biochemical; conditions: crude cytosolic fraction containing human iNOS; 0.1 μM arginine; [3H]arginine; read-out: Inhibition of iNOS activity -logIC50 (converted)
Method: (§1) The assay is performed in 96-well microtiter F-plates (Greiner, Frickenhausen, FRG) in a total volume of 100 μl in the presence of 100 nM calmodulin, 226 μM CaCl2, 477 μM MgCl2, 5 μM flavin-adenine-dinucleotide (FAD), 5 μM flavin mononucleotide (FMN), 0.1 mM nicotinamide adenine dinucleotide phosphate (NADPH), 7 mM glutathione, 10 μM tetrahydrobiopterine (BH4) and 100 mM 4-(2-hydroxyethyl)piperazine-1-ethanesulfonic acid (HEPES) pH 7.2. Arginine concentrations are 0.1 μM for enzyme inhibition experiments. 150000 dpm of [^3H]arginine are added to the assay mixture. Enzyme reaction is started by the addition of 4 μg of a crude cytosolic fraction containing human inducible NO-synthase and the reaction mixture is incubated for 45 to 60 min at 37° C. Enzyme reaction is stopped by adding 10 μl of 2M 2-morpholinoethane sulfonic acid buffer (MES-buffer) pH 5.0. 50 μl of the incubation mixture are transferred into a MADP N65 filtration microtiter plate (Millipore, Eschborn, FRG) containing already 50 μl of AG-50W-X8 cation exchange resin (Biorad, München, FRG). The resin in the Na loaded form is pre-equilibrated in water and 70 μl (corresponding to 50 μl dry beads) are pipetted under heavy stirring with a 8 channel pipette into the filtration plate. After pipetting 50 μl of the enzyme reaction mixture onto the filtration plates, the plates are placed on a filtration manifold (Porvair, Shepperton, UK) and the flow through is collected in Pico scintillation plates (Packard, Meriden, Conn.). The resin in the filtration plates is washed with 75 μl of water (1×50 μl and 1×25 μl) which is also collected in the same plate as the sample. The total flow through of 125 μl is mixed with 175 μl of Microscint-40 scintillation cocktail (Packard) and the scintillation plate is sealed with TopSeal P-foil (Packard). Scintillation plates are counted in a szintillation counter.
(§2) For the measurement of inducible NO-synthase-inhibiting potencies of compounds according to the invention increasing concentrations of inhibitors are included into the incubation mixture. IC50 values are calculated from the percent inhibition at given concentrations by nonlinear least square fitting.

[2] = biological target: T1, human inducible NO-synthase; assay: Measurement of inducible NO-synthase activity in the presence of 20% human plasma serum; assay type: biochemical; conditions: 20% (v/v) human plasma serum added into the reaction volume; read-out: Inhibition of iNOS activity -logIC50 20% human serum (converted)
Method: as §1, §2
The assay determining the human plasma serum binding of compounds according to the invention was performed essentially as the enzymatic activity assay described above. Human plasma serum 20% (v/v) was added into the reaction volume. Human serum was obtained after coagulation and sedimentation of drawn donor blood. After centrifugation (two times 3500 rpm, 30 min) the plasma serum was dialyzed in phosphate buffered saline (PBS) for 18 h using dialysis cassettes with a molecular weight cuttoff of 3500 Dalton (Slide-a-Lyzer 3.5 K, Pierce, Rockford Ill.) in order to reduce the L-arginine concentration that is interfering with the radioactive activity assay. The buffer was refreshed 5 times during dialysis. The serum was aliquoted and frozen at −20° C. until use. Inhibitory potency of the compounds according to the invention was determined as described above.

| IC50 [1] [nM] | melting point | IC50 [2] [nM] | Compound |
| --- | --- | --- | --- |
| 251 | 306 °C | 1580 | COc1ccc(-c2cnc3[nH]c(CCC4CCCCC(N)=N4)nc3c2)cc1 (stereo not shown) [compound 3, 7-{2-[6-(4-Methoxy-phenyl)-3H-imidazo[4,5-b]pyridin-2-yl]-ethyl}-4,5,6,7-tetrahydro-3H-azepin-2-ylamine] |
| 229 | 195 °C (dec.) | 933 | CN(C)S(=O)(=O)c1ccc(-c2cnc3[nH]c(CCC4CCCCC(N)=N4)nc3c2)cc1 (stereo not shown) [compound 5, 4-{2-[2-(7-Amino-3,4,5,6-tetrahydro-2H-azepin-2-yl)-ethyl]-3H-imidazo[4,5-b]pyridin-6yl}-N,N-dimethyl-benzenesulfonamide] |
| 302 | 154 °C (dec.) | 603 | NC1=NC(CCc2nc3cc(-c4ccc(S(=O)(=O)N5CCC5)cc4)cnc3[nH]2)CCCC1 (stereo not shown) [compound 6, 7-(2-{6-[4-(Azetidine-1-sulfonyl)-phenyl]-3H-imidazo[4,5-b]pyridin-2-yl}-ethyl)-4,5,6,7-tetrahydro-3H-azepin-2-ylamine] |
| 468 | 199 °C |  | CCN1CCN(S(=O)(=O)c2ccc(-c3cnc4[nH]c(CCC5CCCCC(N)=N5)nc4c3)cc2)CC1 (stereo not shown) [compound 7, 7-(2-{6-[4-(4-Ethyl-piperazine-1-sulfonyl)-phenyl]-3H-imidazo[4,5-b]pyridin-2-yl}-ethyl)-4,5,6,7-tetrahydro-3H-azepin-2-ylamine] |
| 617 | 260 °C |  | CN(CC1CCCO1)S(=O)(=O)c1ccc(-c2cnc3[nH]c(CCC4CCCCC(N)=N4)nc3c2)cc1 (stereo not shown) [compound 10, 4-{2-[2-(7-Amino-3,4,5,6-tetrahydro-2H-azepin-2-yl)-ethyl]-3H-imidazo[4,5-b]pyridin-6-yl}-N-methyl-N-(tetrahydro-furan-2-ylmethyl)-benzenesulfonamide] |

More lines, now with the values behind:

| Compound | IC50 [1] [nM] | melting point | IC50 [2] [nM] |
| --- | --- | --- | --- |
| NC1=NC(CCc2nc3cc(-c4ccccc4)cnc3[nH]2)CCCC1 (stereo not shown) [compound 1, 7-[2-(6-Phenyl-3H-imidazo[4,5-b]pyridin-2-yl)-ethyl]-4,5,6,7-tetrahydro-3H-azepin-2-ylamine] | 170 | 117 °C (dec.) | 1000 |
| N#Cc1ccc(-c2cnc3[nH]c(CCC4CCCCC(N)=N4)nc3c2)cc1 (stereo not shown) [compound 2, 7-[2-(6-{4-Cyano-phen-1-yl}-3H-imidazo[4,5-b]pyridin-2-yl)-ethyl]-4,5,6,7-tetrahydro-3H-azepin-2-ylamine] | 224 | 175 °C (dec.) | 398 |
| NC1=NC(CCc2nc3cc(-c4cc5ccccc5o4)cnc3[nH]2)CCCC1 (stereo not shown) [compound 4, 7-[2-(6-Benzofuran-2-yl-3H-imidazo[4,5-b]pyridin-2-yl)-ethyl]-4,5,6,7-tetrahydro-3H-azepin-2-ylamine] | 229 |  | 955 |
| Cc1ccc(NS(=O)(=O)c2ccc(-c3cnc4[nH]c(CCC5CCCCC(N)=N5)nc4c3)cc2)c(F)c1 (stereo not shown) [compound 8, 4-{2-[2-(7-Amino-3,4,5,6-tetrahydro-2H-azepin-2-yl)-ethyl]-3H-imidazo[4,5-b]pyridin-6-yl}-N-(2-fluoro-4-methyl-phenyl)-benzenesulfonamide] | 589 | 265 °C |  |
| Cc1ccccc1NS(=O)(=O)c1ccc(-c2cnc3[nH]c(CCC4CCCCC(N)=N4)nc3c2)cc1 (stereo not shown) [compound 9, 4-{2-[2-(7-Amino-3,4,5,6-tetrahydro-2H-azepin-2-yl)-ethyl]-3H-imidazo[4,5-b]pyridin-6-yl}-N-o-tolyl-benzenesulfonamide] | 398 | 215 °C |  |
